Assay results from ChEMBL document CHEMBL1132061, “Studies towards the identification of potent, selective and bioavailable thrombin inhibitors” (Bioorg Med Chem Lett, 1999).

Tests used:
Prothrombin = Prothrombin (Homo sapiens, UniProt P00734); assay: In vitro inhibition of human thrombin.
[1] = Bioavailability in rat after p.o. administration at a dose of 30 mg/kg; format: ADME, organism-based; conditions: in vivo, po
Homo sapiens = species: Homo sapiens; assay: Influence on the doubling of activated partial human thromboplastin time(APTT); format: functional

| Ki (Prothrombin) | bioavailability [1] | Compound | Activity (Homo sapiens) |
| --- | --- | --- | --- |
| 62 nM | – | CCC1CCN(C(=O)[C@H](Cc2ccc(N)cc2)NS(=O)(=O)c2cnccc2N[C@@H](Cc2ccccc2)CN2CCOCC2)CC1 | – |
| 40 nM | – | CCC1CCN(C(=O)[C@H](Cc2ccc(N)cc2)NS(=O)(=O)c2cnccc2N[C@H](CO)Cc2ccc(OC)cc2)CC1 | – |
| 61 nM | – | O=C([C@H](Cc1ccccc1)NS(=O)(=O)c1cnccc1N[C@@H](Cc1ccccc1)CN1CCC(O)CC1)N1CCC(CCF)CC1 | – |
| 130 nM | – | CN(C)C[C@H](Cc1ccccc1)Nc1ccncc1S(=O)(=O)N[C@@H](Cc1ccccc1)C(=O)N1CCC(CCF)CC1 (stereo in doubt; 8) | – |
| 220 nM | – | O=C([C@H](Cc1ccccc1)NS(=O)(=O)c1cnccc1N[C@H](COCCO)Cc1ccccc1)N1CCC(CCF)CC1 | – |
| 85 nM | – | COc1ccc(C[C@@H](CO)Nc2ccncc2S(=O)(=O)N[C@@H](Cc2ccccc2)C(=O)N2CCC(CCF)CC2)cc1 | – |

The next lines start with the compound.

| Compound | Ki (Prothrombin) | bioavailability [1] | Activity (Homo sapiens) |
| --- | --- | --- | --- |
| CCC1CCN(C(=O)[C@H](Cc2ccc(N)cc2)NS(=O)(=O)c2cnccc2N[C@H](COCCO)Cc2ccccc2)CC1 (stereo in doubt; 62) [listing 1 of 2 here] | 147 nM | 55% | – |
| CCC1CCN(C(=O)[C@H](Cc2ccc(N)cc2)NS(=O)(=O)c2cnccc2N[C@H](COCCO)Cc2ccccc2)CC1 (stereo in doubt; 62) [listing 2 of 2 here] | – | – | 5 µM |
| O=C([C@H](Cc1ccc(O)cc1)NS(=O)(=O)c1cnccc1N[C@H](COCCO)Cc1ccccc1)N1CCC(CCCl)CC1 | 28 nM | – | 4.4 µM |
| CCC1CCN(C(=O)[C@H](Cc2ccc(N)cc2)NS(=O)(=O)c2cnccc2N[C@H](COCCO)Cc2ccccc2)CC1 (stereo in doubt; 16) | 147 nM | – | – |
| CN(C)C[C@H](Cc1ccccc1)Nc1ccncc1S(=O)(=O)N[C@@H](Cc1ccccc1)C(=O)N1CCC(CCF)CC1 (stereo in doubt; 64) [listing 1 of 2 here] | 130 nM | – | – |
| CN(C)C[C@H](Cc1ccccc1)Nc1ccncc1S(=O)(=O)N[C@@H](Cc1ccccc1)C(=O)N1CCC(CCF)CC1 (stereo in doubt; 64) [listing 2 of 2 here] | – | – | 9.6 µM |
| Nc1ccc(C[C@H](NS(=O)(=O)c2cnccc2N[C@@H](Cc2ccccc2)CN2CCOCC2)C(=O)N2CCC(CCF)CC2)cc1 | – | – | 2.9 µM |
